The values that follow come from ChEMBL document CHEMBL4725344, “Development of Highly Potent Carbazole Amphiphiles as Membrane-Targeting Antimicrobials for Treating Gram-Positive Bacterial Infections” (J Med Chem, 2020).

The structures appear in SMILES notation. Values after ≈ are worked out from the molar mass of the structure shown.

As usually defined, the MIC is the smallest concentration in the dilution series that meets the test's criterion for growth inhibition. A higher MIC goes with a less susceptible organism. As a reminder, the HC50 is the concentration giving 50% haemolysis. A high value points to weaker haemolysis.

A short description of data set [1]: Selectivity ratio of MIC for Staphylococcus aureus ATCC 29213 to MIC for Staphylococcus epidermidis CMCC 26069. The format is functional.
In the next data set the test system is Bacillus spizizenii. Kind of data set: Antibacterial activity against Bacillus subtilis ATCC 6633 measured after 24 hrs by microplate reader analysis. Format: functional.
A further data set relates to Bacillus subtilis. The experiment in a line: Antibacterial activity against Bacillus subtilis CMCC 63501 measured after 24 hrs by microplate reader analysis. Format: functional.
Data set [2] in a line: Selectivity ratio of MIC for Staphylococcus aureus ATCC 29213 to MIC for Bacillus subtilis CMCC 63501. The format is functional.
Data set [3] is described as follows: Selectivity ratio of MIC for methicillin-resistant Staphylococcus aureus NCTC 10442 to MIC for Bacillus subtilis CMCC 63501. Format: functional.
Data set [4] relates to Staphylococcus epidermidis. Kind of data set: Antibacterial activity against Staphylococcus epidermidis ATCC 12228 measured after 24 hrs by microplate reader analysis. Format: functional.
Data set [5] can be described thus: Selectivity ratio of MIC for methicillin-resistant Staphylococcus aureus N315 to MIC for Bacillus subtilis ATCC 6633. Format: functional.
The test system of data set [6] is Staphylococcus epidermidis. The experiment in a line: Antibacterial activity against Staphylococcus epidermidis CMCC 26069 measured after 24 hrs by microplate reader analysis. Format: functional.
Data set [7] has as its system Staphylococcus aureus. The experiment in a line: Antibacterial activity against methicillin-resistant Staphylococcus aureus N315 measured after 24 hrs by microplate reader analysis. Format: functional.
The nature of data set [8]: Hemolytic activity in rabbit erythrocytes measured after 1 hr by microplate reader analysis. Format: ADME, cell-based, Oryctolagus cuniculus, Erythrocyte.
A short description of data set [9]: Selectivity ratio of MIC for methicillin-resistant Staphylococcus aureus NCTC 10442 to MIC for Bacillus subtilis ATCC 6633. The format is functional.
Data set [10] is described as follows: Selectivity ratio of MIC for Staphylococcus aureus ATCC 29213 to MIC for Staphylococcus epidermidis ATCC 12228. The format is functional.
In data set [11] the test system is Staphylococcus aureus. Kind of data set: Antibacterial activity against Staphylococcus aureus ATCC 29213 measured after 24 hrs by microplate reader analysis. The format is functional.
A short description of data set [12]: Selectivity ratio of MIC for methicillin-resistant Staphylococcus aureus N315 to MIC for Staphylococcus epidermidis CMCC 26069. Format: functional.
The nature of data set [13]: Selectivity ratio of MIC for methicillin-resistant Staphylococcus aureus N315 to MIC for Staphylococcus epidermidis ATCC 12228. The format is functional.
A short description of data set [14]: Selectivity ratio of MIC for methicillin-resistant Staphylococcus aureus N315 to MIC for Bacillus subtilis CMCC 63501. The format is functional.
The nature of data set [15]: Selectivity ratio of MIC for methicillin-resistant Staphylococcus aureus NCTC 10442 to MIC for Staphylococcus epidermidis ATCC 12228. Format: functional.
Data set [16] in a line: Selectivity ratio of MIC for Staphylococcus aureus ATCC 29213 to MIC for Bacillus subtilis ATCC 6633. Format: functional.
In data set [17] the test system is Staphylococcus aureus. Kind of data set: Antibacterial activity against methicillin-resistant Staphylococcus aureus NCTC 10442 measured after 24 hrs by microplate reader analysis. Format: functional.
Data set [18] can be described thus: Selectivity ratio of MIC for methicillin-resistant Staphylococcus aureus NCTC 10442 to MIC for Staphylococcus epidermidis CMCC 26069. Format: functional.
Data set [19] can be described thus: Cytotoxicity against mouse J774.A1 cells assessed as cell viability at 6.25 ug/ml measured after 24 hrs by CCK8 assay relative to control. The format is cell-based. The conditions noted are these: at 6.25 µg/mL, read-out: Activity. On the technique in general: Formazan colour is commonly taken as a measure of viable cells.
Data set [20] is described as follows: Cytotoxicity against mouse J774.A1 cells assessed as cell viability at 3.125 ug/ml measured after 24 hrs by CCK8 assay relative to control. The format is cell-based. Particulars: at 3.125 µg/mL, read-out: Activity.
Data set [21] relates to Staphylococcus aureus. The experiment in a line: Antibacterial activity against Staphylococcus aureus ATCC 29213 infected in cyclophosphamide-immunosuppressed C57BL6 mouse cornea assessed as log reduction in corneal bacterial count at 5% administered as topical solution for 4 times per day for 3 days and measured post-last dose by standard plate counting method. The format is functional. Particulars: time 3 day.

Data set [22] is described as follows: Cytotoxicity against mouse J774.A1 cells assessed as cell viability at […] ug/ml measured after 24 hrs by CCK8 assay relative to control. The conditions noted are these: dose 1.56 µg/ml, read-out: Activity. The format is cell-based.
A short description of data set [23]: Cytotoxicity against mouse J774.A1 cells assessed as cell viability at 12.5 ug/ml measured after 24 hrs by CCK8 assay relative to control. Format: cell-based. Particulars: at 12.5 µg/mL, read-out: Activity.
In data set [24] the test system is Staphylococcus aureus. Kind of data set: Bactericidal activity against Staphylococcus aureus ATCC 29213 assessed as log reduction in bacterial count at 8 times MIC preincubated for 4 hrs followed by replating on MHA medium measured after 24 hrs by time kill assay. Format: functional. Particulars: time 28 hrs.
Data set [25] in a line: Cytotoxicity against mouse J774.A1 cells assessed as cell viability at 100 ug/ml measured after 24 hrs by CCK8 assay relative to control. Particulars: at 100 µg/mL, read-out: Activity. The format is cell-based.
Data set [26] in a line: Cytotoxicity against mouse J774.A1 cells assessed as cell viability at 25 ug/ml measured after 24 hrs by CCK8 assay relative to control. The format is cell-based. The conditions noted are these: at 25 µg/mL, read-out: Activity.
Data set [27] has as its system Staphylococcus aureus. Kind of data set: Bactericidal activity against Staphylococcus aureus ATCC 29213 assessed as log reduction in bacterial count at 4 times MIC preincubated for 4 hrs followed by replating on MHA medium measured after 24 hrs by time kill assay. The conditions noted are these: time 28 hrs. The format is functional.
A short description of data set [28]: Cytotoxicity against mouse J774.A1 cells assessed as cell viability at 50 ug/ml measured after 24 hrs by CCK8 assay relative to control. Format: cell-based. The conditions noted are these: at 50 µg/mL, read-out: Activity.

Turning to `CC(C)=CCn1c2ccccc2c2c(OCC(O)CNC(=O)[C@@H](N)CCCNC(=N)N)cccc21` (stereo partly drawn), the Selectivity ratio in [1], in data set [2], in data set [3], in [5], in data set [9] and in data set [10] was 2 throughout. In addition, the Selectivity ratio in data set [12], in [13], in [14], in data set [15], in [16] and in [18] was 2 in each case. Also, the minimum inhibitory concentration (MIC) against Bacillus spizizenii was found to be 3.12 µg/mL (≈ 6.5 µM); in the data set with Bacillus subtilis, 3.12 µg/mL (≈ 6.5 µM); in data set [4] it was 3.12 µg/mL (≈ 6.5 µM); in data set [6], 3.12 µg/mL (≈ 6.5 µM); in the data set on Staphylococcus aureus [7] it was 6.25 µg/mL (≈ 13 µM); in the data set on Staphylococcus aureus [11], 6.25 µg/mL (≈ 13 µM). The MIC in the data set with Staphylococcus aureus [17] came to 6.25 µg/mL (≈ 13 µM). Besides, the HC50 at 1 h in data set [8] is above 200 µg/mL.
Regarding `CN[C@H](CC(C)C)C(=O)N[C@H]1C(=O)N[C@@H](CC(N)=O)C(=O)N[C@H]2C(=O)N[C@H]3C(=O)N[C@H](C(=O)N[C@H](C(=O)O)c4cc(O)cc(O)c4-c4cc3ccc4O)[C@H](O)c3ccc(c(Cl)c3)Oc3cc2cc(c3O[C@@H]2O[C@H](CO)[C@@H](O)[C@H](O)[C@H]2O[C@H]2C[C@](C)(N)[C@H](O)[C@H](C)O2)Oc2ccc(cc2Cl)[C@H]1O` [VANCOMYCIN], in [19], the viability at 24 h, 6.25 ug/ml came to 99.5%. In addition, the MIC was determined as 1.56 µg/mL (≈ 1.08 µM) against Staphylococcus aureus [7], 0.78 µg/mL (≈ 0.538 µM) in the data set on Staphylococcus aureus [11] and 1.56 µg/mL (≈ 1.08 µM) against Staphylococcus aureus [17]. Further, the viability at 24 h, 3.125 ug/ml in data set [20] came out at 99.8%. In addition, the “log(activity)” value with Staphylococcus aureus [21] was found to be 3.99; in the data set with Staphylococcus aureus [24], 1.45; in the data set on Staphylococcus aureus [27], 0.71. Also, the viability at 24 h, 1.56 ug/ml in data set [22] was determined as 101%. In addition, the viability at 24 h, 12.5 ug/ml in [23] is 98.2%. In data set [25], the viability at 24 h, 100 ug/ml was found to be 89.9%. Also, the viability at 24 h, 25 ug/ml in data set [26] came to 92%. In addition, in data set [28], the viability at 24 h, 50 ug/ml was determined as 91%.
With `CC(C)=CCn1c2ccccc2c2c(OCC(O)CNC(=O)[C@@H](N)CCCCN)cccc21` (stereo partly drawn), the Selectivity ratio in data set [1], in [2], in data set [3], in data set [5], in data set [9] and in data set [10] was 2 throughout. Also, the Selectivity ratio in data set [12], in data set [13], in [14], in data set [15], in data set [16] and in data set [18] was 2 in each case. For the same compound, the MIC in the data set on Bacillus spizizenii was found to be 6.25 µg/mL (≈ 13.8 µM); with Bacillus subtilis it was 6.25 µg/mL (≈ 13.8 µM); in data set [4] it was 6.25 µg/mL (≈ 13.8 µM); in data set [6], 6.25 µg/mL (≈ 13.8 µM); with Staphylococcus aureus [7], 12.5 µg/mL (≈ 27.6 µM); against Staphylococcus aureus [11], 25 µg/mL (≈ 55.2 µM). Also, in the data set with Staphylococcus aureus [17], the MIC was determined as 25 µg/mL (≈ 55.2 µM). This compound also registered an HC50 at 1 h in data set [8] above 200 µg/mL.
